# Test results from patent publication US12486265B2, “2-aminopyrimidine compounds and pharmaceutical compositions and uses thereof” (Shanghai Zhimeng Biopharma, Inc., priority 2019, dated 2025).
# Where two headings read alike, the source gives them in different places.
# How the values were obtained:
# human TLR7 = target: T1, human TLR7 (Homo sapiens, UniProt Q9NYK1); experiment: hTLR7 receptor binding activity in vitro (HEK-Blue hTLR7 SEAP reporter); type: cell-based; settings: HEK-Blue hTLR7 cells, 24 hours, SEAP OD650
# T1 construct: host or cells: HEK-Blue hTLR7 (HEK293-derived)
# T1 sequence (Q9NYK1 27-1049): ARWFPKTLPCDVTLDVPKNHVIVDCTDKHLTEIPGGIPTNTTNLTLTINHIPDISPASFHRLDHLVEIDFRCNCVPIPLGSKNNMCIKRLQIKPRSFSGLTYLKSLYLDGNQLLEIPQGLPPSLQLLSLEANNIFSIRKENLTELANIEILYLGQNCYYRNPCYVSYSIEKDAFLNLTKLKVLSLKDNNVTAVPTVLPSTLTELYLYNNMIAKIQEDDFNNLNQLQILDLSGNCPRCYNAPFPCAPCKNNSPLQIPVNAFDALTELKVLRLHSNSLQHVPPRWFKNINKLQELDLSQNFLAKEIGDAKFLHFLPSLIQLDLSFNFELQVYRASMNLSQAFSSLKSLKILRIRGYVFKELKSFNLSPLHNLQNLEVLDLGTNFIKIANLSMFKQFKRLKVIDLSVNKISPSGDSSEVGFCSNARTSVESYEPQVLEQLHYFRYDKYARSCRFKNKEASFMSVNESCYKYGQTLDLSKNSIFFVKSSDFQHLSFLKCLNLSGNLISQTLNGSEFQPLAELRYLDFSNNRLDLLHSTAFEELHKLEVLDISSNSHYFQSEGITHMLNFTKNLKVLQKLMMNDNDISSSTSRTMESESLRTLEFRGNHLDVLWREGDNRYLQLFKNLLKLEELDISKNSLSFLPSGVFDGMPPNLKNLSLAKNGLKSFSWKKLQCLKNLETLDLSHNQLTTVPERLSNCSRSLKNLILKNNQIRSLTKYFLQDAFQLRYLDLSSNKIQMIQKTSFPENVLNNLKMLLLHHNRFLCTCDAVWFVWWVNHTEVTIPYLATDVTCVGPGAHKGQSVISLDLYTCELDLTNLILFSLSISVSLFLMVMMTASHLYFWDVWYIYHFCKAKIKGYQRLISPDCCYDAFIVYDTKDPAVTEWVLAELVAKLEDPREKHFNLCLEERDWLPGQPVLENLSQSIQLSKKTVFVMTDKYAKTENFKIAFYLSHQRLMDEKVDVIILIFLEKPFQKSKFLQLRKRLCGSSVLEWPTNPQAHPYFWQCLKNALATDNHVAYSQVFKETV
# Method: (§1) The ability of the compounds of the present invention to activate TLR7 and TLR8 respectively was evaluated by using receptor binding experiments in vitro.
# (§2) HEK-Blue™ hTLR7 (article number: hkb-htlr7) and HEK-Blue™ hTLR8 (article number: hkb-htlr8) cells were purchased from InvivoGen company. HEK-Blue™ hTLR7/8 cells can indicate the activation of TLR7/8 by detecting the activation level of NF-κB signaling pathway. HEK-Blue™ hTLR7/8 cells are derived from human embryonic kidney 293 cells, stably expressing human TLR7 or human TLR8, respectively, and can induce expression of secretory alkaline phosphatase (SEAP) to report gene system. The expression of SEAP reporter gene is regulated by IFN-β simplified promoter, which is composed of 5 NF-κB binding sequences and AP-1 binding sequences. Therefore, when TLR7/8 is activated in these two cells, NF-κB and AP-1 will be activated, and SEAP expression and extracellular secretion will be induced. By detecting the activity of SEAP outside the cell, the activation level of TLR7/8 can be indicated.
# (§3) • (1) The compound was added to the cell culture plate after a 3-fold gradient dilution, with a total of 10 concentrations, with two duplicates wells for each concentration.
# (§4) [drawing 45] per well; • (2) HEK-Blue™ hTLR7/8 cells were digested separately, counted, and the cells at 5.0×10^4 cells per well were added to a 96-well cell culture plate containing compounds; (3) The cells added with the compound were placed in a 5% CO2 incubator at 37° C. for 24 hours; • (4) Compound activity detection: took 20 µl/well cell culture supernatant and added it to 96-well plate containing 180 μl QUANTI-BLUE™ reagent. Incubated at 37° C. for one hour, and the optical density absorption value (OD650) at 650 nm was detected with a multifunctional microplate reader; • (5) Cell activity detection: operated according to the Celltiter-Glo instructions, and the chemiluminescence signal (RLU) was detected by a multifunctional microplate reader Envision; • (6) Data analysis: • Compound activity: OD650 value was analyzed by GraphPad Prism software, and the dose effect curve of the compound was fitted to calculate the EC50 value of the compound.
# [1] = Cell activity detection (Celltiter-Glo) in HEK-Blue hTLR8 cells; type: cell-based; settings: human
# Method: as §4
# (§5) Cell activity detection: cell activity was analyzed by GraphPad Prism software, and the dose effect curve of the compound was fitted to calculate the CC50 value of the compound to the cell.
# IL-12p40 in human PBMC = experiment: IL-12p40 induction in human PBMC (ELISA); type: cell-based
# From the text: The human peripheral blood mononuclear cell (PBMC) experiment and the IL-12p40 ELISA detection method are used to detect the IL-12p40 inducing activity of the compound of the present invention in human PBMC.
# Toll-like receptors (TLRs) are a series of switches that regulate the human immune system and occupy an important position in both innate (non-specific) and specific immunity. TLR8 is mainly expressed in monocytes, macrophages and myeloid dendritic cells. TLR8 is expressed on the Endosome intima of the cell and recognizes single-stranded RNA with high GU (guanylate/uridonic acid) content. After TLR8 signaling pathway is activated, it will activate the secretion of a series of downstream cytokines (IL-12, TNF-alpha, IFN-gamma, etc.), causing antiviral immune response. In this experiment, the compound was used to stimulate human PBMC, and the level of IL-12p40 protein in the culture supernatant was detected to evaluate the activation level of the compound on the TLR8 signaling pathway.
# • (1) The compound was added to the cell plate after a 3-fold gradient dilution, with a total of 8 concentrations, and two duplicate wells for each concentration.
# (§6) Resuspended, cell number was counted, and the cell suspension was adjusted to 2.5×10^6 cells/ml with the culture medium.
# [2] = Cell activity detection (Celltiter-Glo) in human PBMC; type: cell-based
# Method: as §6, §5
# [3] = Pharmacokinetic study in male SD rats; type: in vivo; settings: rat, plasma
# Method: Pharmacokinetic study: 6 healthy male SD rats (SPF grade) were divided into 2 groups and 3 rats/group. […] Within half an hour, plasma was taken after centrifugation (6000 rpm, 8 minutes, 4° C.) and frozen at −20° C. for later use. Experimental results: According to the obtained blood drug concentration data, the non-compartmental model of WinNonlin® 8.1 software (Certara, USA) was used to calculate the pharmacokinetic parameters after administration.
# [4] = Liver-blood ratio study in male SD rats; type: in vivo; settings: rat, liver / plasma, single oral administration; for Kp at 1 h: time point 1 h; for Kp at 4 h: time point 4 h
# Method: Liver-blood ratio study: 4 healthy male SD rats (SPF grade) were divided into 2 groups and 2 rats/group. After fasting overnight, compound A and compound X were administrated orally respectively. Blood was taken through cardiac puncture at time points 1 and 4 hours, at least 0.5 mL of whole blood was collected to EDTA-K2 anticoagulant tube, and plasma was taken after centrifugation (6000 rpm, 8 minutes, 4° C.) within half an hour and frozen at −20° C. for later use. At the same time, liver tissue was collected, rinsed with normal saline, then blotted dry with absorbent paper, weighed, and frozen at −20° C. for later use.
# human TLR8 = target: T2, human TLR8 (Homo sapiens, UniProt Q9NR97); experiment: hTLR8 receptor binding activity in vitro (HEK-Blue hTLR8 SEAP reporter); type: cell-based; settings: for EC50: HEK-Blue hTLR8 cells, 24 hours, SEAP OD650; for selectivity for TLR8 activation: TLR8 versus TLR7, compared with compound X
# T2 construct: host or cells: HEK-Blue hTLR8 (HEK293-derived)
# T2 sequence (Q9NR97 27-1041): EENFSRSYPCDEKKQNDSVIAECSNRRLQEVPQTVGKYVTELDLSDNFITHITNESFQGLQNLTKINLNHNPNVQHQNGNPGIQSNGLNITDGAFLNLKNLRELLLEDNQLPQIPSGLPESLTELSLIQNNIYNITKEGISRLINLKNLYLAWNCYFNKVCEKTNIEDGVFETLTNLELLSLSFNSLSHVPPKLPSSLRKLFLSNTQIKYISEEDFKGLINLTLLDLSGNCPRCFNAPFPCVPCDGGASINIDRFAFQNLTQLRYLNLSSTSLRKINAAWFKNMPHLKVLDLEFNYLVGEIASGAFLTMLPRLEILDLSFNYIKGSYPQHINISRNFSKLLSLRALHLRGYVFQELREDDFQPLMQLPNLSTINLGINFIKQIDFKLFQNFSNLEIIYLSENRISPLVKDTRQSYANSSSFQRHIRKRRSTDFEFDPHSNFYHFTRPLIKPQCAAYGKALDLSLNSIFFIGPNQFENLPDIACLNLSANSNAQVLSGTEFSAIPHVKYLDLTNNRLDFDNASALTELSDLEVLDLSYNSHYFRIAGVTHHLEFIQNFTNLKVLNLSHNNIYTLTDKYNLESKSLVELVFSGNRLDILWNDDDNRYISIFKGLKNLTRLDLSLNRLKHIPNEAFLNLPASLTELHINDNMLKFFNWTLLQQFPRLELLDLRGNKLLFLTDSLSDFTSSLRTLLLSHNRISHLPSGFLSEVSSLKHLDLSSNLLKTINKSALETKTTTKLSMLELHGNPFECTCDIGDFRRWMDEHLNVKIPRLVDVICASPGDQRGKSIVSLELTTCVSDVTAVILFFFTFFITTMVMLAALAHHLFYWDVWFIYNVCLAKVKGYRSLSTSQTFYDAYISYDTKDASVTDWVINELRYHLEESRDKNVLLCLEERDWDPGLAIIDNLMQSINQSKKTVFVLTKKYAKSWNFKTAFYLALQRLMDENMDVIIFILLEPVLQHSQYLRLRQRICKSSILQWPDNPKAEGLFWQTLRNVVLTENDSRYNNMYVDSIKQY
# Method: as §1, §2, §3, §4
# [5] = 24 hours, Celltiter-Glo, read-out: CC50
# [6] = read-out: cytotoxic CC50 on human PBMC
# [7] = human PBMC, 24 hours, ELISA OD450, read-out: IL-12p40 EC50
SMILES,EC50 (human TLR7) [µM],CC50 at 24 h [1] [µM],"CC50 at 24 h [2, 5] [µM]","CC50 at 24 h [2, 6] [µM]",Kp at 1 h [4],Kp at 4 h [4],EC50 (IL-12p40 in human PBMC; [7]) [µM],EC50 (human TLR8) [µM],selectivity for TLR8 activation (human TLR8),further results
CCCC[C@](C)(CNC(C)=O)Nc1nc(N)nc2cc(C(=O)N(C)C)cnc12 [Compound A],> 33,> 33,> 33,> 10,12.3,34.4,–,–,–,"EC50 (IL-12p40 in human PBMC; Homo sapiens, PBMC, 24 h, read-out: IL-12p40 EC50): 0.031 µM; EC50 (IL-12p40 in human PBMC; Homo sapiens, PBMC, read-out: induced activity EC50 on IL-12p40): 0.031 µM; AUC(0-inf) ([3]; IV 5 mg/kg): 877 ng·h/mL; AUC(0-t) ([3]; IV 5 mg/kg): 876 ng·h/mL; Cmax ([3]; IV 5 mg/kg): 1830 ng/mL; MRT last ([3]; IV 5 mg/kg): 22.8 min; Tmax ([3]; IV 5 mg/kg): 4.98 min; clearance ([3]; IV 5 mg/kg): 95 mL/min/kg; half-life ([3]; IV 5 mg/kg): 40.8 min; Vd ([3]; IV 5 mg/kg, read-out: Vz): 5.59 L/kg; AUC(0-inf) ([3]; PO 50 mg/kg): 1260 ng·h/mL; AUC(0-t) ([3]; PO 50 mg/kg): 1250 ng·h/mL; Cmax ([3]; PO 50 mg/kg): 1170 ng/mL; MRT last ([3]; PO 50 mg/kg): 116 min; Tmax ([3]; PO 50 mg/kg): 25.2 min; bioavailability ([3]; PO 50 mg/kg): 14.2%; half-life ([3]; PO 50 mg/kg): 345 min"
"CCOCc1nc2c(N)nc3ccccc3c2n1CC(C)(C)O [Compound R848, reference compound]",–,> 71,> 71,–,–,–,0.208,–,–,–
CCCC[C@](C)(CNC(C)=O)Nc1nc(N)nc2cc(C(=O)N3CC4(CCN(c5ccccc5)CC4)C3)cnc12 [Compound T],> 33,> 33,–,–,–,–,–,0.207,–,–
CCCC[C@](C)(CNC(C)=O)Nc1nc(N)nc2cc(C(C)=O)cnc12 [Compound V],> 33,> 33,–,–,–,–,–,0.049,higher selectivity for TLR8 activation than compound X,–
"CCCC[C@](C)(CNC(C)=O)Nc1nc(N)nc2cc(CC)cnc12 [Compound X, reference compound]",11.9,> 33,–,–,6.9,23.6,–,0.04,–,–
CCCC[C@](C)(CNC(C)=O)Nc1nc(N)nc2cc(NC3CC3)cnc12 [Compound B],28.4,> 33,28.9,> 10,–,–,0.02,0.029,higher selectivity for TLR8 activation than compound X,"EC50 (IL-12p40 in human PBMC; human PBMC, read-out: induced activity EC50 on IL-12p40): 0.02 µM"
